# How the values were obtained:
# [1] = target: DNA gyrase subunit B (Streptococcus pneumoniae serotype 4 (strain ATCC BAA-334 / TIGR4), UniProt P0A4L9); test: Inhibition of Streptococcus pneumoniae SP-3 gyrB by enzyme coupled phosphate assay
# [2] = target: T1, ParE (Streptococcus pneumoniae, UniProt Q7X1P7); test: Inhibition of Streptococcus pneumoniae SP-3 parE after 30 mins
# T1 sequence (Q7X1P7 whole entry): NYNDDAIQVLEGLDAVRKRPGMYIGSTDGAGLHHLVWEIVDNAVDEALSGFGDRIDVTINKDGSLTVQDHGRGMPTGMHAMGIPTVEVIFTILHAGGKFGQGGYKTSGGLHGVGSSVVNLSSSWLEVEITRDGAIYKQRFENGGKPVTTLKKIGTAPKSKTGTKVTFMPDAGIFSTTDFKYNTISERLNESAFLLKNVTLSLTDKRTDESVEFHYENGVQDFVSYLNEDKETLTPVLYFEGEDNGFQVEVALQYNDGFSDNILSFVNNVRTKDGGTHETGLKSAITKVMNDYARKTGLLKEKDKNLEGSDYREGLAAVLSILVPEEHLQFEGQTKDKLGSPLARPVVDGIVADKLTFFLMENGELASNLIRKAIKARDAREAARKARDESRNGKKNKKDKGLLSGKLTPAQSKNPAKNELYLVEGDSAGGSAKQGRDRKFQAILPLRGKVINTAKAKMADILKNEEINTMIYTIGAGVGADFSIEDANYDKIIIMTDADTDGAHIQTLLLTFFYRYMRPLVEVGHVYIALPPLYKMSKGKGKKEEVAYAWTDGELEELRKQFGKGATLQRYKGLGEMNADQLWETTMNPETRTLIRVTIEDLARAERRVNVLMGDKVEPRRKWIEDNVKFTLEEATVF
# [3] = tested on: Staphylococcus aureus; test: Antibacterial activity against Staphylococcus aureus UC76 by NCCLS method; format: functional, organism-based
# [4] = tested on: Staphylococcus aureus; test: Antibacterial activity against methicillin resistant Staphylococcus aureus SA-1417 by NCCLS method; format: functional
# [5] = tested on: Streptococcus pyogenes; test: Antibacterial activity against Streptococcus pyogenes SP1-1 by NCCLS method; format: functional
# [6] = tested on: Streptococcus pneumoniae; test: Antibacterial activity against Streptococcus pneumoniae SP-3 by NCCLS method; format: functional
# [7] = tested on: Streptococcus pneumoniae; test: Antibacterial activity against fluoroquinolone resistant Streptococcus pneumoniae SP-3765 by NCCLS method; format: functional
# [8] = tested on: Streptococcus pyogenes; test: Antibacterial activity against Streptococcus pyogenes SP1-1 infected in po dosed mouse sepsis model; format: functional; settings: SP1-1, po, read-out: PD50
# [9] = tested on: Streptococcus pneumoniae; test: Antibacterial activity against Streptococcus pneumoniae SV-1 infected in po dosed mouse lung; format: functional; settings: SV-1, po, read-out: PD50
# [10] = Bioavailability in rat; format: ADME, organism-based; settings: in vivo
# [11] = Clearance in rat; format: ADME, organism-based; settings: in vivo
# [12] = Volume of distribution in rat; format: ADME, organism-based; settings: in vivo
# [13] = tested on: Staphylococcus aureus; test: Antibacterial activity against methicillin resistant Staphylococcus aureus 01A-1095 by NCCLS method; format: functional
# [14] = tested on: Streptococcus pyogenes; test: Antibacterial activity against Streptococcus pyogenes C203 by NCCLS method; format: functional
# [15] = tested on: Streptococcus pneumoniae; test: Antibacterial activity against Streptococcus pneumoniae D39 by NCCLS method; format: functional
# DNA gyrase subunit B, sequence (P0A4L9 whole entry): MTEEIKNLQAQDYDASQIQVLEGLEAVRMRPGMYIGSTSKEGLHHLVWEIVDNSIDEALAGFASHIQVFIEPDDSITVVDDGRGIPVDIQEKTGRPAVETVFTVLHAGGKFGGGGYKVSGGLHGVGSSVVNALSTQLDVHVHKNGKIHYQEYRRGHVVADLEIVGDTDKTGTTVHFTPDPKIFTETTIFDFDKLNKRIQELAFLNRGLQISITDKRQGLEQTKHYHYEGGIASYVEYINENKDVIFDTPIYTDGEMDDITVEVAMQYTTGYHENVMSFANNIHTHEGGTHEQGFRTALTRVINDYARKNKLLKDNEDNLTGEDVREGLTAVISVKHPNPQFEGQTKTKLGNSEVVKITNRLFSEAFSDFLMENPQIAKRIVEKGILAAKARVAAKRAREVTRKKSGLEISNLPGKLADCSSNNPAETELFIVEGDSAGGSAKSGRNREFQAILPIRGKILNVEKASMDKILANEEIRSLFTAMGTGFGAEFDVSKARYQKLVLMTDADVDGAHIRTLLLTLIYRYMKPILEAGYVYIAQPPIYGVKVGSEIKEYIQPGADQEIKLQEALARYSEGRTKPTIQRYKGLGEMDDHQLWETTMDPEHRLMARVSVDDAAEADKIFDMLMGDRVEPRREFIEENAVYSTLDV
Structure (SMILES),IC50 [1] [nM],IC50 [2] [nM],MIC ([3]; read-out: MIC) [µg/mL],MIC [4] [µg/mL],MIC [5] [µg/mL],MIC [6] [µg/mL],MIC [7] [µg/mL],ED50 [8] [mg/kg],ED50 [9] [mg/kg],bioavailability [10] [%],clearance [11] [mL/min/kg],Vd [12] [L/kg],MIC [3] [µg/mL],MIC [13] [µg/mL],MIC [14] [µg/mL],MIC [15] [µg/mL]
CCNC(=O)Nc1cn2c(-c3ncccn3)cc(-c3cccnc3)cc2n1,48,447,0.5,0.5,0.25,0.125,0.25,24,35,56,33,1.6,–,–,–,–
CO[C@@H]1[C@@H](OC(N)=O)[C@@H](O)[C@H](Oc2ccc3c(O)c(NC(=O)c4ccc(O)c(CC=C(C)C)c4)c(=O)oc3c2C)OC1(C)C [NOVOBIOCIN],–,2030,–,–,–,–,4,–,–,–,–,–,0.125,0.125,8,4
CCNC(=O)Nc1cn2c(-c3ncc(C)cn3)cc(-c3cccnc3)cc2n1,53,250,0.5,0.5,0.5,0.125,0.125,24,21,99,18,1.3,–,–,–,–
CCNC(=O)Nc1cn2c(-c3ncc(C)cn3)cc(-c3ccn(CCF)c(=O)c3)cc2n1,376,10000,0.5,1,0.5,0.125,0.5,–,–,–,–,–,–,–,–,–
CCNC(=O)Nc1cn2c(-c3ncc(CC)cn3)cc(-c3cccnc3)cc2n1,353,265,0.25,1,0.125,0.06,0.06,–,–,–,–,–,–,–,–,–
